These are literature values, as cited in patent publication US11260028B2, “Nanosome formulations of aprepitant and methods and applications thereof” (ForDoz Pharma Corp., priority 2017, dated 2022).

In the case of `C[C@@H](O[C@H]1OCCN(Cc2n[nH]c(=O)[nH]2)[C@H]1c1ccc(F)cc1)c1cc(C(F)(F)F)cc(C(F)(F)F)c1` [aprepitant, 5-[[(2R,3S)-2-[(1R)-1-[3,5-bis(trifluoromethyl)phenyl]ethoxy]-3-(4-fluorophenyl)-4-morpholinyl]methyl]-1,2-dihydro-3H-1,2,4-triazol-3-one], the water solubility entry is recorded as “poor”.
